The source of these data is patent US6416753B1, “Method for modulating apoptosis” (The General Hospital Corporation, priority 1996, dated 2002).

In experiment [1] the test system is HeLa cells. Kind of experiment: TNF-α induced cell death of hydroxyurea (G1/S) arrested HeLa cells. It is filed as cell-based. The conditions noted are these: HU treated, G1/S phase arrested HeLa cells; IL-1Ra 40 ng/ml. The procedure: (§1) HeLa, HeLa/CrmA, and L929 cells were seeded (2×10^4) in a 24 well plate and grown overnight in DMEM with 10% FCS. After 12 hours, the cells were washed 3 times with serum free DMEM, and hydroxyurea (HU) (2.5 mM) (Sigma, St. Louis, Mo.) was added to the HeLa and HeLa/CrmA cells Meikrantz, W., et al., Proc. Natl. Acad. Sci. U.S.A. 91: 3754 (1994)). After five hours, IL-1Ra (40 ng/ml) was added to the appropriate wells, and one hour later either TNF-α or mature IL1β were added. Twenty-four hours later, IL-1Ra was again added to the appropriate wells, and cell death was evaluated by trypan blue exclusion 60 hours after the initial addition of HU. Each condition was done three times in duplicate and 200 cells counted per well. For the photographs cells were grown on 2 well slides, and for nuclear morphology determination cells were fixed in 4% paraformaldehyde and incubated with Hoechst dye #33258 (10 μg/ml) (Sigma, St. Louis, Mo.).

Experiment [2] has as its system HeLa cells. Kind of experiment: Hypoxia-induced apoptosis of HeLa cells, viability by trypan blue exclusion. The experiment is classed as cell-based. As for the experimental part: (§2) Hypoxia-induced apoptosis was studied as follows. HeLa and HeLa/CrmA cells (Miura, M., et al., Proc. Natl. Acad. Sci. USA. 92:8318-8322, 1995) were seeded in 35 mm dishes at a density of 6×10^4/dish in DMEM/10% FCS and grown overnight. The medium was then changed and factors were added (IL-1Ra, R & D, Minneapolis, Minn.), IL-1 antibody (Calbiochem, San Diego, Calif.), or IL-1 type-1 receptor antibody (R & D, Minneapolis, Minn.). Dishes were placed in an anaerobic chamber with a BBL GasPack Plus (Becton-Dickenson, USA), which reduced the oxygen concentration to less than 100 p.p.m. within 90 minutes. After 16 hours, cells were removed from the chamber, immediately trypsinized and scored for viability by trypan blue exclusion. Inhibition of ^125I IL-1β binding by IL-1Ra which was added for 2 hrs at 37° C. After addition of BSA (1 mg/ml) to the medium, cells were incubated at 4° C. for 15 minutes, and then ^125IL-1β (100 ng/ml) was added at 4° C. for 1 hr. For detection of ^125IL-1β binding, cells were treated with 50 mM glycine-HCl, pH 2.6 for 1 min, and quantitated by γ-counting.
Hypoxia was produced as described in Example 1. IL-1β (100 ng/ml) was added as the cells were placed into the hypoxia chamber (90 min. are required to reach oxygen concentrations of 100 p.p.m.). […] Cells were then treated as above with glycine and radioactivity scored.

Experiment [3] deals with DRG neurons. Kind of experiment: Trophic factor deprivation of primary DRG neurons, healthy neurons counted. The experiment is classed as cell-based, mouse. The conditions noted are these: for Inhibition of trophic factor withdrawal-induced apoptosis: 100 ng/ml. As for the experimental part:
Neuronal trophic factor deprivation was assayed as follows. Post-natal day 1 mouse DRG neurons were isolated, dissociated with trypsin for one hour at 37° C., and plated in a 8 camber poly-lysine/laminin (Sigma, St. Louis, Mo.) coated slide. Wells were seeded at approximately 1000 neurons/well (8 wells/mouse). Neurons were cultured in Ham's nutrient F-12 supplemented with 20% FCS (Biowhittaker, Walkesvill, Md.), NGF (200 ng/ml) (Sigma, St. Louis, Mo.), BDNF (100 ng/ml) (Preprotech, Rocky Hill, N.J.), glutamine (2 mM), and penicillin/streptomycin. The medium was replaced daily with either trophic factor containing medium (TF(+))=20% FCS and NGF (200 ng/ml), or trophic factor deficient medium, TF(−)=serum and NGF-free medium in the presence of saturating concentration of mouse NGF monoclonal antibody (100 ng/ml) (Boehringer Mannheim, Indianapolis, Ind.), and IL-IRA (100 ng/ml unless otherwise indicated in the text). Healthy neurons were counted under a phase contrast microscope 24 and 48 hours following the media change.

The test system of experiment [4] is L929 cells. In words: TNF-α induced cell death of L929 cells, trypan blue exclusion. Particulars: IL-1Ra 40 ng/ml. It is filed as cell-based. The procedure:
as §1, with “After” for “HeLa, HeLa/CrmA, and L929 cells were seeded (2×10^4) in a 24 well plate and grown overnight in DMEM with 10% FCS. After”, “Louis, Mo.) was added to the HeLa and HeLa/CrmA cells Meikrantz, W., et al., Proc.” left out

The test system of experiment [5] is COS cells. In words: Cell death of COS cells transfected with Ice-lacZ / Ich-1L-lacZ / proIL-1β, round blue cells scored. The experiment is classed as cell-based. The procedure: COS cells were plated (2×10^4) in 6-well plates in DMEM with 10% FCS. After 12 hours the wells were washed with serum and antibiotic free medium, and transfected using lipofectamine with either Ice-lacZ, Ich-1L-lacZ, βactin-lacZ(1 μg) or with proIL-1β (0.5 μg) for 3 hours. The sequence for Ich-1L is shown in FIG. 7 and the sequences of human ICE and pro- IL-1β are found respectively in Thornsberry et al., Nature 356:768-774 (1992) and in J. Immunol. 137:3644-3648, 1986. The medium was then removed and DMEM with 10% FCS added. IL-1Ra (40 ng/ml) was then added to the appropriate wells, and after one hour IL-1β (100 ng/ml) was added. X-gal reaction was performed 36 hours following the transfection and percentage of round blue (dead) cells were scored (Miura, M., et al., Cell 75: 653 (1993))

Experiment [6] relates to cerebral infarct. Particulars: rat model; Relton & Rothwell 1992; cited from earlier work.
The test system of experiment [7] is HeLa cells. In words: HeLa cell death induced by TNF-α and cycloheximide. The experiment is classed as cell-based. Particulars: data not shown.
The target in experiment [8] is T1, IL-1 receptor (Homo sapiens, UniProt P14778).
T1 construct: endogenous in cells; host or cells: HeLa cells
T1 sequence (P14778 18-569): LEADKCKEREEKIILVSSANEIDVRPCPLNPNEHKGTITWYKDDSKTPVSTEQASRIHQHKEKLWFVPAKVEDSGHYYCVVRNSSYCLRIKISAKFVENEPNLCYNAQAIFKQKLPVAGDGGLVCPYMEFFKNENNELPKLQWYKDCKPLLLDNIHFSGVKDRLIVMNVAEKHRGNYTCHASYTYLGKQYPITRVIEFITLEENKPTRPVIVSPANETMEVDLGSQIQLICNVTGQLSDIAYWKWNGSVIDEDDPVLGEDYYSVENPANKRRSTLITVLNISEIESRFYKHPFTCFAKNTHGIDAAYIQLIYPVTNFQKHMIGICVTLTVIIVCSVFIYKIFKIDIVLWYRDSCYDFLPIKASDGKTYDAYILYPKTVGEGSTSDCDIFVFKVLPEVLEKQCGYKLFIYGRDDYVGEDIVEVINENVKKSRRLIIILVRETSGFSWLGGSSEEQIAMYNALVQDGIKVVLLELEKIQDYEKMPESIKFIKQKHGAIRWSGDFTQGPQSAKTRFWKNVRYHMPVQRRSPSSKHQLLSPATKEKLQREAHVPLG
In words: Inhibition of 125I IL-1β receptor binding in HeLa cells. The conditions noted are these: IL-1Ra added for 2 hrs at 37° C. As for the experimental part:
as §2

The subject of experiment [9] is HeLa cells. In words: Mature IL-1β induced cell death of hydroxyurea (G1/S) arrested HeLa cells. The experiment is classed as cell-based. The conditions noted are these: G1/S phase arrested HeLa cells. As for the experimental part: as §1
Experiment [10] concerns HeLa and L929. Kind of experiment: Apoptosis of healthy proliferating cells exposed to mature IL-1β alone. It is filed as cell-based. The conditions noted are these: most healthy proliferating cells including HeLa and L929.
Experiment [11] addresses T1, IL-1 receptor. Kind of experiment: IL-1 receptor binding assay (receptor down-regulation) in HeLa cells. It is filed as cell-based. Particulars: 100 ng/ml 125I IL-1β. The procedure: Hypoxia was produced as described in Example 1. IL-1β (100 ng/ml) was added as the cells were placed into the hypoxia chamber (90 min. are required to reach oxygen concentrations of 100 p.p.m.). IL-1 receptor binding assay: HeLa cells (10^6) were seeded in 10 cm dishes and grown overnight. Media was then exchanged containing 1 mg/ml of BSA and 100 ng/ml of ^125I IL-1β at 4° C. for 1 hr. After washing twice with cold medium, the cells were incubated with fresh warm medium at 37° C. for 0, 30, 60 and 120 minutes. Cells were then treated as above with glycine and radioactivity scored.

In experiment [12] the target is IL-1 type-1 receptor on HeLa cells (UniProt P14778). In words: cell-based or functional assay.

For the substance “IL-1Ra: a naturally occurring cytokine which binds to the IL-1 receptor, blocking IL-1 mediated signal transduction”, in experiment [1], the “Inhibition of TNF-α induced HeLa cell death” value stood at 56.0%. Besides, the “Inhibition of hypoxia-induced cell death” value in [2] (HeLa cells, 16 hours hypoxia) is on record as “inhibited hypoxia-induced cell death”. Also, the “Inhibition of neuronal apoptosis” value in experiment [3] (40 ng/ml, 24 hours) is given as 43.5%. The “Inhibition of trophic factor withdrawal-induced apoptosis” value in experiment [3] (24 hours) worked out at 69.2%; in experiment [3] (48 hours), 37.8%. Moreover, in experiment [4], the “Protection from TNF-α induced death” value is given as “up to 64.9%”. For the same substance, the “Inhibition of death of COS cells expressing Ice-lacZ or Ich-1L-lacZ with proIL-1β, or with extracellular TNF-α or mature IL-1β” value in experiment [5] (IL-1Ra 40 ng/ml) is given as “significantly inhibited”. Besides, in experiment [6], the “Reduction of cerebral infarct size following ischemia” value is 50%. Besides, the “Protection from death induced by TNF-α and cycloheximide” value in [7] is recorded as “protected”. Also, the “Blocking of 125I-IL-1β binding” value in experiment [8] is recorded as “blocks”. For the same substance, the “Inhibition of mature IL-1β induced cell death” value in experiment [9] is recorded as “inhibited”.

Regarding “IL-1β: mature 17.5 kD interleukin-1β, cytokine produced by ICE cleavage of prointerleukin-1β”, the “Survival of HeLa cells preincubated with exogenous IL-1β under hypoxia” value in experiment [2] (IL-1β 100 ng/ml added as cells were placed into the hypoxia chamber, control 10.1%) is on record as 58.7%. The “Induction of apoptosis of healthy proliferating cells” value in [10] is listed as “does not induce apoptosis”. The “Induction of apoptosis in COS cells by the exogenous cytokine alone” value in [5] (COS cells without Ice/Ich-1L transfection) is reported as “did not induce apoptosis”. Further, the “Induction of cell death in Ice-lacZ or Ich-1L-lacZ transfected COS cells” value in [5] (extracellular cytokine, 36 hours after transfection) was “efficiently induced cell death”. In [11], the “Down-regulation of the IL-1 receptor” value is recorded as “significantly down-regulated”. Further, in [9] (100 ng/ml), the “Cell death induced by exogenous mature IL-1β” value was found to be 83.7%.

In experiment [12], “mature IL-1β (from UniProt P01584 117-269) (ligand)” showed a cell death of G1/S phase arrested (HU treated) HeLa cells treated with exogenous mature IL-1β of 83.7% and a survival of HeLa cells under hypoxia after preincubation with exogenous IL-1β (100 ng/ml) of 58.7%.
